The text below walks through data of the METLIN SMRT retention time set (Domingo-Almenara et al. 2019).

A short description of this data set: gradient 5% acetonitrile 3 min, to 50% in 2 min, to 85% in 15 min, held 3 min, 100 µL/min. Conditions: column: Zorbax Extend-C18 2.1 x 50 mm; eluents: water / acetonitrile, 0.1% formic acid. An outline of the steps: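 Pure standards were analyzed in mixtures of ~100 molecules using HPLC coupled to a quadrupole time-of-flight mass spectrometer, in both positive and negative ionization mode. Separation used a Zorbax Extend-C18 column (2.1 × 50 mm, 1.8 μm) at 100 μL/min, with water and acetonitrile each containing 0.1% formic acid. Dead and dwell volumes were 40 μL and 900 μL, and data were collected over 3 months. Retention time was read from computationally picked adduct peaks, each inspected manually.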
On to `O=C(Nc1ccccc1)N1C[C@H]2C[C@H](C1)[C@H]1CCCC(=O)N1C2`, for which the RP-LC retention time stood at 622 s.
`Cc1cccc(-n2c(N3CCCC(C(=O)NCc4ccccc4Cl)C3)nc3ccsc3c2=O)c1` (centres undefined) had an RP-LC retention time of 956 s.
The molecule `CC(C)n1cnc2cc(CNC(=O)Cc3c[nH]c4ccccc34)ccc21` came in with an RP-LC retention time of 604 s.
The same measure for `O=C(Nc1cnc(-c2ccccc2)nc1)c1cccc(F)c1`: 970 s; for `COc1ccc(CN2CC3(CCN(S(=O)(=O)c4ccc(F)cc4)CC3)C2=O)cc1`: 904 s; for `CCOC(=O)c1c(C)oc2nc(C)nc(NC3CCN(Cc4ccccc4)CC3)c12`: 597 s.
In the case of `COc1ccc(-c2noc(-c3nnn(Cc4nc(-c5ccccc5OC)oc4C)c3C)n2)cc1OC` it was 1000 s.
The same measure for `CCCC(=O)N1CCC2(CC1)NC(=O)c1ccccc1O2`: 688 s; for `Cc1cc(N2CCN(C(=O)c3ccc(Br)cc3)CC2)nc2nnc(C)n12`: 563 s.
For the molecule `COc1ccc(N2C=C(C(=O)N3CCCC3)S(=O)(=O)c3ccc(Cl)cc32)cc1OC`, the RP-LC retention time amounted to 816 s.
In the case of `Cc1ccc(Nc2nc(C(=O)NC3CCCC3)nc3ccccc23)cc1` it was 853 s.
`N#Cc1cccc(NC(=O)Cn2cnc3nc4c(cc3c2=O)CCCC4)c1` came in with an RP-LC retention time of 700 s.
Take `O=C(NCc1ccc2c(c1)OCO2)C1CCCN(c2ccc(=O)n(-c3cccc(Cl)c3)n2)C1` (centres undefined): the RP-LC retention time amounted to 857 s.
In turn, `Cc1ccc(C)c(Cn2ccn3nc(-c4ccccc4)c(CO)c3c2=O)c1` registered an RP-LC retention time of 1030 s.
The molecule `CC(C)Oc1ccc(-c2noc(Cn3cnc4c(oc5ccccc54)c3=O)n2)cc1` registered an RP-LC retention time of 1060 s.
The same measure for `COc1ccc(-c2c(C)noc2NC(C)=O)cc1S(=O)(=O)N1CCN(c2ccc(F)cc2)CC1`: 843 s; for `O=C(Cn1c(=O)c2cccn2c2ccc(F)cc21)NCCCN1CCCC1`: 598 s; for `COc1ccc(CCNS(=O)(=O)c2cc3c4c(c2)CCC(=O)N4CCC3)cc1OC`: 766 s.
Molecule `O=C(NCC1CCCO1)C1CCCN(c2ncccc2-c2noc(C3CCC3)n2)C1` (centres undefined) had an RP-LC retention time of 770 s.
`O=C(NCc1ccc2c(c1)OCO2)C1CCN(C(=O)c2ccc(Cl)cc2)CC1` had an RP-LC retention time of 766 s.
Turning to `CCCN1C(=O)COc2ccc(-c3csc(NC(=O)C4CCCCC4)n3)cc21`, the RP-LC retention time was determined as 1100 s.
In turn, `O=C(CN1C(=O)CCCc2cc(S(=O)(=O)N3CCCCCC3)ccc21)NC1CCCCC1` registered an RP-LC retention time of 987 s.
In turn, `CCc1ccc(NC(=O)Cn2nc(N3CCCC(C)C3)c3ccccc3c2=O)cc1` (centres undefined) showed an RP-LC retention time of 1160 s.
In the case of `CC(C)=C1SC(=O)N(CC(=O)Nc2ccc(S(N)(=O)=O)cc2)C1=O` it was 672 s; in that of `CCCSCCCNc1nc(-c2nnc(-c3cccc(C)c3)o2)nc2ccccc12`, 1190 s; in that of `CN(CCc1noc(-c2ccc(F)cc2)n1)C(=O)Nc1ccc(F)cc1`, 864 s.
Take `O=C(NC1CCN(C(=O)c2cc(-c3cccs3)[nH]n2)CC1)C1CCCCC1`: the RP-LC retention time is 722 s.
For `COc1cccc(N2CCN(C3=Nc4c(F)cccc4[C@H](CC(=O)O)N3c3cc(C(F)(F)F)ccc3OC)CC2)c1`, the RP-LC retention time amounted to 899 s.
`c1ccc(-c2nc3cc(-c4noc(-c5ccco5)n4)ccc3o2)cc1` registered an RP-LC retention time of 1240 s.
Consider `NC(=O)C1CCN(S(=O)(=O)c2ccc3[nH]cc(C(=O)O)c(=O)c3c2)CC1`, for which the RP-LC retention time amounted to 596 s.
Molecule `Cc1c2c(cc3c1[nH]c1ccccc13)C=NCC2` displayed an RP-LC retention time of 630 s.
In the case of `CCCN(CC1CCOC1)C(=O)Nc1cccc(Cl)c1C` (centres undefined) it was 835 s.
As for `CCOc1ccc(-n2ccnc(NC(=O)Nc3ccccc3)c2=O)cc1`, the RP-LC retention time was 981 s.
`CCCN1C(=O)NC(=O)C2NCNC21` (centres undefined) gave an RP-LC retention time of 604 s.
In turn, `CCN1C(=O)C2(CCN(C(=O)C3CCCCC3)CC2)c2ccccc21` returned an RP-LC retention time of 950 s.
In the case of `O=C(Nc1cccc(C(F)(F)F)c1)N1CCCC1c1nncn1C1CCCC1` (centres undefined) it was 765 s.
In turn, `Cc1ccc(CNC(=O)c2ccc3c(c2)ncn3CCN2CCCC2)cc1` had an RP-LC retention time of 585 s.
The same measure for `COC(=O)c1ccc(S(=O)(=O)N2CCN(S(=O)(=O)C3CC3)CC2)cc1`: 878 s; for `O=C(NCCn1c(=O)n(Cc2ccc(F)cc2)c2cccnc21)c1ccsc1`: 762 s; for `Cc1cccc(Nc2c(-c3ccccc3)nc3ncccn23)c1C`: 671 s.
Molecule `COc1ccc2c(c1)C1(CCN(C(=O)c3cccc(F)c3)C1)C(=O)N2` (centres undefined) yielded an RP-LC retention time of 717 s.
In turn, `O=C(Nc1cccc(-c2nnc3n2CCCC3)c1)C1CC1` showed an RP-LC retention time of 601 s.
In the case of `O=C(c1cnccn1)N1CCC(N2C(=O)C(OCC3CC3)C23CCOCC3)CC1` (centres undefined) it was 607 s; in that of `O=C(Cn1nc2nc(N3CCCC3)ccn2c1=O)NCCc1ccccc1`, 947 s.
Take `CCc1nc(-c2cccc(-c3noc(CNS(=O)(=O)c4ccc(Cl)cc4)n3)c2)cs1`: the RP-LC retention time stood at 1130 s.
The same measure for `CC1Cc2ccccc2N1C(=O)c1ccc(=O)n(CCC(=O)NC2CCCCCCC2)n1` (centres undefined): 895 s; for `O=C(CSc1ccc(-n2ccnc2)nn1)N1CCc2ccccc21`: 578 s.
Regarding `CCOC(=O)c1[nH]c(C)c(C(=O)N2CCC(CC(=O)N3CCCCCC3)CC2)c1C`, the RP-LC retention time was found to be 739 s.
Take `CC(NC(=O)C1CCCN(c2cnc3nccnc3c2)C1)c1cccnc1` (centres undefined): the RP-LC retention time was 598 s.
`Cc1cccc(N2CCN(C(=O)c3cn4c(n3)CCCC4)CC2)c1C` gave an RP-LC retention time of 690 s.
For the molecule `CCC(=O)Nc1ccc(-n2cnc(C(=O)N3CCN(c4ccccc4OC)CC3)c2)nc1`, the RP-LC retention time turned out to be 667 s.
Take `COc1cccc(-n2c(=O)c3sccc3n(Cc3nc(-c4cccc(C)c4)no3)c2=O)c1`: the RP-LC retention time came out at 978 s.
Molecule `Cc1nn(CC(=O)NCc2ccc(F)cc2F)c(=O)c2nc(-c3ccccc3)sc12` displayed an RP-LC retention time of 914 s.
`O=C(NCc1cccnc1)C1CCCN(c2ncnc3c2nc2n3CCCCC2)C1` (centres undefined) displayed an RP-LC retention time of 577 s.
`CCc1cc(C2CCCN2Cc2ccc(OC)c(O)c2)on1` (centres undefined) gave an RP-LC retention time of 588 s.
The same measure for `CCOC(=O)CNC(=O)Nc1ccc2nc(N3CCOCC3)cc(C)c2c1`: 582 s; for `O=C(C1CCOC1)N1CCCn2nc(-c3cccc(Cl)c3)cc2C1` (centres undefined): 771 s.
The same measure for `Cc1ccc2c(c1)N(C(=O)c1ccc(C#N)cc1)CCO2`: 925 s.
`Cc1noc(C)c1S(=O)(=O)N1CCC(c2noc(-c3ccccn3)n2)C1` (centres undefined): the RP-LC retention time was 794 s.
The same measure for `Cc1ccn2cc(-c3ccc(NC(=O)c4ccc(Br)cc4)cc3)nc2n1`: 698 s; for `COc1cc(C2C(C(=O)N3CCOCC3)=C(C)NC3=C2C(=O)CCC3)cc(Br)c1O` (centres undefined): 607 s.
`c1ccc(CCNc2nnc(-c3nc(C4CC4)no3)c3ccccc23)nc1` registered an RP-LC retention time of 629 s.
`CCOc1ccc(NC(=O)N2CCN(c3cc(C)nc(N4CCCC4)n3)CC2)cc1` showed an RP-LC retention time of 681 s.
In the case of `Cn1c(=O)n(C)c2cc(CNc3ccc4[nH]c(=O)[nH]c4c3)ccc21` it was 561 s.
For `CN(Cc1ccco1)C(=O)c1c2c(nc3ccccc13)C(=O)N(C1CCCCC1)C2`, the RP-LC retention time stood at 844 s.
As to `CCCS(=O)(=O)c1nc2ccc(NS(=O)(=O)c3ccccc3Cl)cc2s1`, the RP-LC retention time turned out to be 906 s.
In the case of `CCC(C)NC(=O)Cn1c(=O)c2cnc(-c3ccccc3)nc2n(C)c1=O` (centres undefined) it was 854 s; in that of `Cc1ccc(-n2nc(C)c3nc(CCC(=O)N4CCN(c5ccccn5)CC4)c(=O)n(C)c32)cc1`, 627 s.
For the molecule `COc1ccc(N2CC(c3nc(-c4ccc5c(c4)oc(=O)n5C(C)C)no3)CC2=O)cc1` (centres undefined), the RP-LC retention time worked out at 915 s.
Take `O=C(Nc1cccc(C(F)(F)F)c1)N1CC(c2nc(-c3cccs3)no2)C1`: the RP-LC retention time was 917 s.
Regarding `O=C(CSc1cc(N2CCN(c3ccccc3F)CC2)ncn1)N1CCc2ccccc21`, the RP-LC retention time stood at 1010 s.
The molecule `CCn1ncc2ccc(C(N)=O)cc21` returned an RP-LC retention time of 599 s.
In turn, `Cc1cc(C)cc(NC(=O)Cn2cc(-c3nnc(C)o3)c3ccccc32)c1` came in with an RP-LC retention time of 903 s.
`O=C(NCc1cc(F)cc(F)c1)c1c(O)c2cccnc2n(-c2cccc(F)c2)c1=O`: the RP-LC retention time stood at 1200 s.
`CCCCOC(=O)C1=C(C)NC(=O)NC1c1ccc(OCCC)c(OC)c1` (centres undefined) displayed an RP-LC retention time of 884 s.
The same measure for `COc1ccc(CCc2nc3nccc(-c4cc(OC)c(OC)c(OC)c4)n3n2)cc1`: 895 s; for `Cc1cnc(C(=O)NCC2CCCCC(=O)N2)cn1` (centres undefined): 593 s.
In turn, `Cc1ccccc1-c1noc(Cn2c(=O)n(CCc3ccccc3)c(=O)c3sccc32)n1` yielded an RP-LC retention time of 1200 s.
As to `Cc1nc(C)c(-c2ccc(=O)n(CCNC(=O)c3ccno3)n2)s1`, the RP-LC retention time amounted to 585 s.
